From PMC6562610, “Inhibition of Hedgehog Signaling in Fibroblasts, Pancreatic, and Lung Tumor Cells by Oxy186, an Oxysterol Analogue with Drug-Like Properties” (Cells, 2019)
“Also recorded” adds a separate entry of the source.

Tests used:
[1] = test system: Hh target gene Ptch1 expression in NIH3T3-E1 cells; experiment: Inhibition of CAPAN-1 conditioned medium-induced Ptch1 mRNA expression, Q-RT-PCR; type: cell-based, mouse; settings: CAPAN-1 CM, 72 h
Text: NIH3T3-E1 fibroblasts were obtained from ATCC (Manassas, VA) and cultured, as previously described. CAPAN-1 and PANC-1 human pancreatic cancer cells were obtained from ATCC and cultured in Dulbecco’s Modified Eagle Medium (DMEM) containing 10% heat-inactivated fetal bovine serum (FBS) (Hyclone Laboratories, Logan, UT, USA) and antibiotics, as previously described. The human lung cancer cell lines A549 and H2030 were obtained from ATCC and cultured in RPMI-1640 containing 10% FBS. The human hepatoma cell line HepG2 was obtained from ATCC and cultured in DMEM containing 10% FBS. […]
Total RNA was extracted with the RNeasy Plus Mini Kit from Qiagen, according to the manufacturer’s instructions. […] The cDNAs were then mixed with Qi SYBR Green Supermix (Bio-Rad, Hercules, CA, USA) for quantitative RT-PCR assay using a Bio-Rad I-cycler IQ quantitative thermocycler. […] Fold changes in gene expression were calculated using the ΔΔCt method. […]
Figure 3 Inhibition of ligand-induced Hedgehog signaling. […] After 72 h, RNA was extracted and analyzed by Q-RT-PCR for the expression of Hh target genes Gli1 (a,b,d) and Ptch1 (c), and normalized to Oaz1 expression. […] Luciferase activity was measured and normalized to the Renilla luciferase activity. […]

[2] = test system: Gli1 expression in PANC-1 cells; experiment: Inhibition of baseline Gli1 expression in PANC-1 cells, Q-RT-PCR; type: cell-based, human; settings: 10 µM, 48 h
Text: (§1) NIH3T3-E1 fibroblasts were obtained from ATCC (Manassas, VA) and cultured, as previously described. CAPAN-1 and PANC-1 human pancreatic cancer cells were obtained from ATCC and cultured in Dulbecco’s Modified Eagle Medium (DMEM) containing 10% heat-inactivated fetal bovine serum (FBS) (Hyclone Laboratories, Logan, UT, USA) and antibiotics, as previously described. The human lung cancer cell lines A549 and H2030 were obtained from ATCC and cultured in RPMI-1640 containing 10% FBS. The human hepatoma cell line HepG2 was obtained from ATCC and cultured in DMEM containing 10% FBS. Mouse embryonic fibroblasts (MEFs) from suppressor of fused (Sufu) null mice (Sufu^−/−) were provided by Dr. Philip Beachy of Stanford University and cultured in DMEM containing 10% FBS. Gant61, SB431542 and vismodegib (GDC0449) were obtained from Cayman Chemical, HPI-1 was obtained from Abcam. For experiments, cells were treated in a medium containing 5% FBS.
(§2) Total RNA was extracted with the RNeasy Plus Mini Kit from Qiagen, according to the manufacturer’s instructions. One microgram of RNA was reverse-transcribed using an iScript Reverse Transcription Supermix from Bio-Rad, to make single-stranded cDNA. The cDNAs were then mixed with Qi SYBR Green Supermix (Bio-Rad, Hercules, CA, USA) for quantitative RT-PCR assay using a Bio-Rad I-cycler IQ quantitative thermocycler. All PCR samples were prepared in triplicate wells in a 96-well plate. […] Fold changes in gene expression were calculated using the ΔΔCt method. […]
(§3) Figure 4 Inhibition of Gli and Shh expression in (a) PDAC (PANC-1) and (b,c) human lung cancer cells (A549 and H2030, respectively) by Oxy186. Cells were treated with the compounds as indicated in DMEM or RPMI 1640 containing 5% FBS for (a) 48 or (b,c) 72 hours, then RNA was extracted and analyzed by Q-RT-PCR for the expression of Gli1 and normalized to GAPDH expression. (d) CAPAN-1 cells were treated with the compounds, as indicated, in DMEM containing 5% FBS for 72 h, then RNA was extracted and analyzed by Q-RT-PCR for the expression of Shh and normalized to GAPDH expression. […]

[3] = test system: Shh expression in CAPAN-1 cells; experiment: Inhibition of Shh expression in CAPAN-1 cells, Q-RT-PCR; type: cell-based, human; settings: 72 h
Text: as §1, §2, §3

[4] = test system: H2030 cells; experiment: Cell counting assay, H2030; type: cell-based, human
Method: A549 and H2030 cells cultured in 12-well plates at 20% confluence were treated with Oxy186, HPI-1, Gant61, or GDC0449 for 96 hours and then trypsinized and suspended in fresh medium. An aliquot of cell suspension was applied to a hemocytometer and counted under a microscope.
Figure 6 Inhibition of human pancreatic and lung cancer cell proliferation by Oxy186. (a,c) A549, (b) and (d) H2030, (e) PANC-1, and (f) CAPAN-1 cells were treated with the compounds as indicated in RPMI 1640 (a–d) or DMEM (e,f) containing 5% FBS for 96 h and then were trypsinized and counted. Data from a representative experiment are reported as the mean of triplicate determinations ± SD (* p < 0.05 vs. Control; ** p < 0.01 vs. control).

[5] = test system: LXR target gene Abca1; experiment: Induction of LXR target gene Abca1 in NIH3T3 cells, Q-RT-PCR; type: cell-based, mouse
Method: Total RNA was extracted with the RNeasy Plus Mini Kit from Qiagen, according to the manufacturer’s instructions. One microgram of RNA was reverse-transcribed using an iScript Reverse Transcription Supermix from Bio-Rad, to make single-stranded cDNA. The cDNAs were then mixed with Qi SYBR Green Supermix (Bio-Rad, Hercules, CA, USA) for quantitative RT-PCR assay using a Bio-Rad I-cycler IQ quantitative thermocycler. All PCR samples were prepared in triplicate wells in a 96-well plate. After 40 cycles of PCR, melt curves were examined in order to ensure primer specificity. Fold changes in gene expression were calculated using the ΔΔCt method. Primers used for mouse were as follows: Oaz1 (5’-CCACTGCTTCGCCAGAGAG-3’) and (5’-CCCGGACCCAGGTTACTA-3’), Gli1 (5’-[…]-3’ and 5’-[…]-3’), Ptch1 (5’-CCATCGGCGACAAGAACC-3’ and 5’-[…]-3’), Hip (5’-[…]-3’ and 5’-[…]-3’), and Abca1 (5’-[…]-3’ and 5’-[…]-3’). Primers used for human were as follows: SREBP1c (5’-CGCTCCTCCATCAATGACA-3’ and 5’-[…]-3’), GAPDH (5’-[…]-3’ and 5’-[…]-3’), SHH (5’-CGGAGCGAGGAAGGGAAAG-3’) and (5’-[…]-3’), and GLI1 (5’-GAAGCCGAGCCGAGTATC-3’ and 5’-[…]-3’).
Figure 7 Induction of LXR target gene expression by Oxy186 and LXR agonist TO901317 (TO). (a) NIH3T3 cells and (b) HepG2 cells were treated with DMEM containing 5% FBS in the presence or absence of TO (2 µM) or Oxy186 (10 µM). […] Data from a representative experiment are reported as the mean of triplicate determinations ± SD (** p < 0.01 vs. control).

[6] = Metabolic stability in mouse liver microsomes; type: in vitro ADME

**Q.** Which “Inhibition of ligand-induced Ptch1 mRNA expression” value [1] does the source give for `C[C@]12CC[C@H](O)C[C@@H]1CC[C@@H]1[C@@H]2CC[C@@]2(C)[C@H]1CC[C@@H]2[C@](C)(O)CCc1ccc(F)cc1` [Oxy186, (3S,5S,8R,9S,10S,13S,14S,17S)-17-((R)-4-(4-fluorophenyl)-2-hydroxybutan-2-yl)-10,13-dimethylhexadecahydro-1H-cyclopenta[a]phenanthren-3-ol] here?
**A.** robustly inhibited

**Q.** What about the “Inhibition of high baseline expression of Gli1” value [2] of the same compound?
**A.** significantly inhibited

**Q.** What about the “Inhibition of Shh expression” value [3] of the same compound?
**A.** robustly inhibited; also recorded: significant inhibition

**Q.** What about the Anti-proliferative effect ([4]; 96 h) of the same compound?
**A.** significant anti-proliferative effect

**Q.** What about the IC50 ([4]; Homo sapiens, NCI-H2030, 96 h, read-out: IC50 for inhibition of cell proliferation) of the same compound?
**A.** 3.1 µM

**Q.** What about the “LXR agonism (Figure 8b summary)” value ([5]; Figure 8b drug-like properties summary) of the same compound?
**A.** Weak LXR agonist

**Q.** What about the “Induction of expression of LXR target gene Abca1” value ([5]; NIH3T3-E1 cells, up to 10 µM) of the same compound?
**A.** only modestly induced

**Q.** What about the remaining at 1 h ([6]; 60 min, read-out: MLM, % Remaining after 60 min) of the same compound?
**A.** 50%

**Q.** And the half-life ([6]; read-out: MLM, Half-Life)?
**A.** 1 h
